Earlier results on two compounds are cited in PMC11767697, “Radiocobalt-Labeling of a Polypyridylamine Chelate Conjugated to GE11 for EGFR-Targeted Theranostics” (Molecules, 2025).

For this data set the following is noted: Co(II) complex. As for the experimental part:
The promising therapeutic properties of the AEE, ^58mCo (T1/2 = 9.1 h), have been theoretically predicted and confirmed by in vitro and in vivo experiments using PSMA and octreotide conjugates of DOTA [[2],[11 ...

Turning to `O=C([O-])CN(CCN(CC(=O)[O-])CC(=O)[O-])CC(=O)[O-].[Co+2]` [[Co^II(EDTA)]^2-], the “stability (binding) constant Log(β)” value (comparable conditions) is given as 16.1.
As to `[Co+2].c1ccc(CN(CCN(Cc2ccccn2)Cc2ccccn2)Cc2ccccn2)nc1` [[Co^II(TPEN)]^2+], the “stability constant Log(β)” value is given as 16.6.
